# In patent US20030185956A1, “Separation method” (priority 2000, published 2003):
# Columns and labels:
# [1] = Separation in model membrane reactor, water to n-decane across cellulose acetate dialysis membrane; format: physicochemical; conditions: for recovered into the decane / amount recovered into the decane: Example 5, after 2.5 days; for recovered into the decane: 20 g macerated grapefruit peel (nootkatone 4.3 mg, limonene 135 mg) in 35 ml water; for amount recovered into the decane: grapefruit peel
# Experimental: (§1) Separation experiments were carried out in a small model membrane reactor which consisted of an upper and lower chamber separated by 0.002 m^2 of membrane. Thorough mixing was ensured by use of a magnetic stirrer with a separate stirring bar contained within each chamber. Membrane separations were carried out at room temperature (22° C.).
# Gas Chromatography (g.c.)
# Analysis of valencene, nootkatone, 1,2-epoxyoctane and 1-octene.
# Column—SE-30 capillary (Alltech, Carnforth, Lancs, UK), ID 0.32 mm, film thickness 0.25 μm.
# Temperature program 200° C. for 5 min. 10° C. min^−1
# Injector/detector temperature—300° C.
# Carrier gas-helium, head pressure 0.35 bar
# [2] = Product recovery from fungal culture broth into solvent in dialysis tubing; format: physicochemical; conditions: for recovered into the n-decane: 72 h incubation, nootkatol and nootkatone approx. 3.3 mg combined, valencene approx. 150 mg
# Experimental: Product recovery experiments were carried out in fungal or bacterial cultures or in suspensions of fungal or bacterial cells. Reaction media contained: unreacted substrate valencene at 0.3-1.4 mg ml^−1 and the reaction products nootkatol and nootkatone in concentrations ranging from 0.02-0.2 mg ml^−1. Nootkatol and nootkatone differ from the substrate valencene by the presence of only a single hydroxyl or a single keto group respectively. [drawing 1]
# Dialysis tubing (as described in Example 1) pre-soaked in deionised water, containing n-hexane (50 ml) was added to each of two separate fungal cultures. On addition of hexane filled tubing, reaction mixtures contained the following:
# Culture one contained culture broth and biomass (100 ml), residual valencene (approximately 35 mg) and product nootkatone (2.3 mg). Culture two contained culture broth and biomass (100 ml), residual valencene (approximately 33 mg), product nootkatone (3.8 mg), and Tween 80 (trade mark) (1.3 g).
# After 48 h extraction time (30° C., shaking at 160 rpm), 96% of nootkatone had been recovered from culture broth one into n-hexane in the dialysis tubing. The remaining nootkatone was detected in the culture broth. Valencene was not detected in the n-hexane extraction solvent. The efficiency of extraction from culture broth two was 68%. The remaining nootkatone was detected in the culture broth. A trace amount of valencene was detected in the extraction solvent.
# Dialysis tubing (details described in Example 7) pre-soaked in deionised water, containing n-decane (50 ml) was added to a fungal culture medium containing: culture broth and biomass (100 ml); residual valencene (approximately 150 mg) and the products nootkatol and nootkatone (approx. 3.3 mg combined weight). After 72 h incubation (conditions described in Example 7) 100% of the nootkatol and nootkatone products had been recovered into the n-decane in the dialysis tubing. Valencene was not detected in the n-decane.
# [3] = Separation in model membrane reactor across Supor membrane; format: physicochemical; conditions: Example 3
# Experimental: as §1
# [4] = Selective extraction from water into n-decane in dialysis tubing (shaken flask); format: physicochemical; conditions: Example 6, 30° C., 45 hours; for amount present in the n-decane phase: 100 mg limonene + 20 mg carvone in 100 ml water, 50 ml n-decane, 150 rpm
# Experimental: Dialysis tubing (cellulose acetate visking tubing MW cut off 12-14,000 Da) containing 50 ml n-decane was added to the flask and the whole incubated at 30° C. with shaking at 150 rpm for 45 hours.
# physchem = conditions: 25 °C, water
SMILES,recovered into the decane [1],amount recovered into the decane [1] [mg],recovered into the n-decane ([2]; Example 8) [%],amount present in the n-decane phase [4] [mg],share of amount originally added to the water phase found in n-decane [4] [%],other results
C=C(C)[C@@H]1CCC2=CC(=O)C[C@@H](C)[C@]2(C)C1 [nootkatone],"component limonene. After 2.5 days, 28%",1.2,100,,,"Rate of flux ([1]; Example 1, cellulose acetate, thickness 0.05 mm, M.W. cut-off 12-14,000 Da): 0.08 g nootkatone h^−1m^−2. g h^−1m^−2; recovered from culture broth into n-hexane ([2]; Example 7, culture one (no Tween 80), 48 h, 30° C., 160 rpm): 96%; efficiency of extraction into n-hexane ([2]; Example 7, culture two (with Tween 80 1.3 g), 48 h, 30° C., 160 rpm): 68%; Rate of flux [3]: 0.130 g h^−1m^−2 for nootkatone"
C=C(C)[C@H]1CC=C(C)CC1 [limonene],5%,4.6,,2.0,2,
C=C(C)[C@@H]1CCC2=CCC[C@@H](C)[C@]2(C)C1 [valencene],,,,,,"presence in the n-hexane extraction solvent ([2]; Example 7, culture one): not detected; presence in the extraction solvent ([2]; Example 7, culture two (with Tween 80)): trace amount; presence in the n-decane ([2]; Example 8, 72 h): not detected"
C=C(C)[C@@H]1CCC2=CC(O)C[C@@H](C)[C@]2(C)C1 (stereo partly shown) [nootkatol],,,100,,,
C=C(C)C1CC=C(C)C(=O)C1 (stereo not shown) [carvone],,,,8,40,solubility (physchem): ~600 µg/mL
"CCCCCCC1CO1 (stereo not shown) [1,2-epoxyoctane]",,,,,,"Rate of flux ([1]; not told): 1.45 g h^−1m^−2 for 1,2-epoxyoctane"
